The results in this text go back to patent publication US9023814B2, “Glycomimetic compounds as anti-infectious against pathogens lectins” (priority 2010, dated 2015).

Assay [1] concerns the target T1, LecA (Pseudomonas aeruginosa, UniProt Q05097). Description: Inhibition of Hemagglutination (HIA), LecA-induced agglutination of rabbit erythrocytes. Format: cell-based. Particulars: LecA 6 μg/mL, 25° C. The protocol: Inhibition of Hemagglutination (IHA) (or Hemagglutination Inhibition Assays (HIA)).
The LecA lectin agglutinates red blood cells since they are covered by glycoconjugates. The glycomimetics inhibit this agglutination.
For each compound the minimum concentration able to perform inhibition has been evaluated. The method is not very quantitative but mimics natural system.
More particularly, hemagglutination inhibition assays were performed in U-shaped 96-well microtitre plates. Rabbit erythrocytes were bought from Biomerieux and used without further washing. The erythrocytes were diluted to a 4% solution in NaCl (150 mM). Lectin solutions of 2 mg/mL were prepared in Tris/HCl 20 mM, NaCl 100 mM and CaCl2 100 μM. The hemagglutination unit (HU) was first obtained by the addition of 25 μL of the 4% erythrocyte solution to 25 μL aliquots of sequential (two-fold) lectin dilutions. The mixture was incubated at 25° C. for 60 minutes. The HU was measured as the minimum lectin concentration required to […] hemagglutination. For the following lectin-inhibition assays, lectin concentrations of four times that of the hemagglutination unit were used, i.e. a concentration of 6 μg/mL for LecA. Subsequent assays were then carried out by the addition of 12.5 μL lectin solution (at the required concentration) to 25 μL of sequential dilutions of glycoclusters, monomer molecules and controls. These solutions were then incubated at 25° C. for 2 h then 12.5 μL of 4% erythrocyte solution was added followed by an additional incubation at 25° C. for 30 minutes. The minimum inhibitory concentration for each molecule was determined by simple eye detection.
Compounds 5, 10, 14, 19, 21, 23, 25, 27, 29 and 31 were evaluated towards LecA according to Method 1.

Assay [2] concerns the target T1, LecA. The assay is described as follows: biochemical. Type of assay: binding. The protocol: Isothermal Titration Microcalorimetry (ITC).
The method allows for a direct measurement of the affinity between the glycomimetics and the LecA lectin. The dissociation constant is measured.
More particularly, recombinant lyophilized LecA was dissolved in buffer (0.1 M TrisHCl, 6 μM CaCl2, pH 7.5) and degassed (see Supp. Info. for concentration details). Protein concentration was checked by measurement of optical density using a theoretical molar extinction coefficient of 28000. Carbohydrate ligands were dissolved directly into the same buffer, degassed, and placed in the injection syringe. ITC was performed with a VP-ITC MicroCalorimeter from MicroCal Incorporated. PA-IL was placed into the 1.4478-mL sample cell, at 25° C. Titration was performed with 10-μL injections of carbohydrate ligands every 300 s. Data were fitted with MicroCal Origin 7 software, according to standard procedures. Fitted data yielded the stoichiometry (n), the association constant (Ka) and the enthalpy of binding (ΔH).
Other thermodynamic parameters (i.e. changes in free energy, ΔG, and entropy, ΔS) were calculated from the equation: ΔG=ΔH TΔS=−RT Inka where T is the absolute temperature and R=8.314 J·mol^−1·K^−1. Two or three independent titrations were performed for each ligand tested.

Assay [3] deals with T1, LecA. Description: Enzyme-Linked Lectin Assay (ELLA), biotinylated LecA binding to polymeric galactose. The method, then: Enzyme-Linked Lectin Assay (ELLA) Experiments 96-well plates are covered with polymer presenting galactose (which is the monosaccharide that is bound by LecA). The lectin labelled with biotin is added in presence of competing glycomimetics. IC50 can be measured.
More particularly, ELLA experiments were conducted using 96-well microtitre plates (Nunc Maxisorb) coated with polymeric β-D-galactose (5 μg/mL; Lectinity Holding, Inc., Moscow) diluted in carbonate buffer, pH 9.6 (100 μL) for 1 h at 37° C. After blocking at 37° C. for 1 h with 100 μL per well of 3% (w/v) BSA in PBS, plates were incubated at 37° C. for 1 h with 100 μL of biotinylated LecA at 0.1 μg/mL in the presence of serial dilutions of inhibitors. After washing with T-PBS (PBS containing 0.05% Tween), 100 μL of streptavidinperoxidase conjugate (dilution 1:10000; Boehringer-Mannheim) was added and left for 1 h at 37° C. The color was developed using 100 μL per well of 0.05 M phosphate/citrate buffer containing O-phenylenediamine dihydrochloride (0.4 mg/mL) and urea hydrogen peroxide (0.4 mg/mL) (Sigma-Aldrich). The reaction was stopped by the addition of 50 μL of 30% H2SO4. Absorbance was read at 490 nm using a microtitre plate reader (Bio-Rad; model 680).

Assay [4] addresses T1, LecA. The assay is described as follows: biochemical. Format: binding. The method, then: Surface Plasmon Resonance (SPR).
Equivalent method, but performed in miniaturized channel on a galactose-containing chips in a more sophisticated apparatus (Biacore 3000) that allows for a precise determination of the IC50.
More particularly, SPR inhibition experiments were performed on a Biacore 3000 instrument at 25° C. Measurements were carried out on 2 channels with 2 immobilised sugars: α-L-fucose (channel 1), α-D-galactose (channel 2). Immobilization of sugars was performed at 25° C. using running buffer (HBS) at 5 μL/min. Immobilization on each channel (CM5 Chip) was performed independently as follows. First, channel was activated by injecting a fresh mixture of EDC/NHS (35 μL, 420 s). Then, a solution of strepatavidin (100 μg/mL in Na acetate pH 5 buffer) was injected (50 μL, 600 s). Remaining reactive species were quenched by injecting ethanolamine (1M, 35 μL, 420 s). Finally a solution of the desired biotinylated-polyacrylamide-sugar (Lectinity, 200 μg/mL) was coated onto the surface (50 μL, 600 s) through streptavidin-biotin interaction. This procedure led to 804 RU (fucoside) and 796 RU (galactoside) of immobilized sugars on channel 1 and 2 respectively. Inhibition experiments were performed with the galactosylated channel 2 and plots represent subtracted data (channel 2-channel 1).
LecA was injected using running buffer consisting of HEPES 10 mM, NaCl 150 mM, CaCl2 10 mM, Tween P20 0.005%, pH 7.4. Inhibition studies consisted in the injection (150 μL, 10 μL/min, dissociation: 120 s) of incubated (>1 h, r.t.) mixtures of LecA (5 μM) and various concentrations of inhibitor (2-fold cascade dilutions). For each inhibition assay, LecA (5 μM) without inhibitor was injected to observe the full adhesion of the lectin onto the sugar-coated surface (0% inhibition). The CM5 chip was fully regenerated by successive injections of D-Galactose (2×30 μL, 100 mM in running buffer).
Binding was measured as RU over time after blank subtraction, and data were then evaluated using the BIAevaluation Software, version 4.1. For IC50 evaluation, the response (Req-fitted) was considered as the amount of lectin bound to the sugar surface at equilibrium in the presence of a defined concentration of inhibitor. Inhibition curves were obtained by plotting the percentage of inhibition against the inhibitor concentration (on a logarithmic scale) by using Origin 7.0 software (OriginLab Corp.) and IC50 values were extracted from sigmoidal fit of the inhibition curve.
This is another data set of the same source.

Setting [5] is: read-out: Dissociation constant for the interaction in solution with LecA (ITC), 25° C., 0.1 M TrisHCl, pH 7.5.
Where [6] appears, read: read-out: IC50 for the inhibition of labelled-LecA binding to a galactosylated polymer (ELLA), biotinylated LecA 0.1 μg/mL, multi-well plate.
Setting [7] is: read-out: IC50 for the inhibition of label-free LecA binding to a galactosylated chip surface (SPR), LecA 5 μM, 25° C.

Read-outs that look alike come from different tables or passages of the source.

T1 sequence (Q05097 whole entry): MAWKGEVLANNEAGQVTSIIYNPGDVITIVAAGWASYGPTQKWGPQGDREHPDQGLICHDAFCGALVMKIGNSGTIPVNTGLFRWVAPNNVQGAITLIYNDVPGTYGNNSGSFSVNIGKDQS

`O=C(Cn1cc(CO)nn1)NCCOCCO[C@@H]1O[C@H](CO)[C@H](O)[C@H](O)[C@H]1O` [Comp. 5, 1-[(1,2,3-Triazol-4-hydroxymethyl-1-yl)-acetamido]-3-oxapent-5-yl β-D-galactopyranoside]: the “inhibiting concentrations of lectin-induced red cells agglutination (minimum inhibitory concentration)” value (from here on “inhibiting concentrations”) against LecA [1] is given as 10 000 μM. In addition, the Kd on LecA [2] was 107 µM. Besides, the values for the IC50 at LecA [3] and on LecA [4] were 250 µM and 58.3 µM, respectively.

For `O=C(CNC(=O)Cn1cc(CO)nn1)NCCO[C@@H]1O[C@H](CO)[C@H](O)[C@H](O)[C@H]1O` [Comp. 10, 2-N-[(1,2,3-Triazol-4-hydroxymethyl-1-yl)-acetamido]glycinamido-ethyl β-D-galactopyranoside], the “inhibiting concentrations” value at LecA [1] is recorded as 2 500 μM. This compound returned a Kd on LecA [2] of 180 µM. Moreover, the IC50 (as a rule, the point on the concentration scale where inhibition reaches its midpoint) was found to be 300 µM on LecA [3] and 60 µM against LecA [4].

Regarding `CC(C)(C)c1cc2c(OCc3cn(CC(=O)NCCOCCOC4OC(CO)C(O)C(O)C4O)nn3)c(c1)Cc1cc(C(C)(C)C)cc(c1OCc1cn(CC(=O)NCCOCCOC3OC(CO)C(O)C(O)C3O)nn1)Cc1cc(C(C)(C)C)cc(c1OCc1cn(CC(=O)NCCOCCOC3OC(CO)C(O)C(O)C3O)nn1)Cc1cc(C(C)(C)C)cc(c1OCc1cn(CC(=O)NCCOCCOC3OC(CO)C(O)C(O)C3O)nn1)C2` (stereo not shown) [Comp. 19], the “inhibiting concentrations” value at LecA [1] was found to be 500 µM. The Kd on LecA [2] (setting [5]) stood at 0.094 µM; at LecA [2] (read-out: dissociation constant (ITC), 25° C.), 0.094 µM. The IC50 on LecA [3] (setting [6]) was 7 µM; on LecA [4] (setting [7]), 1 µM. Moreover, the “IC50 (SPR), in words” value on LecA [4] was “micromolar range”.

In the case of `CC(C)(C)c1cc2c(OCc3cn(CC(=O)NCC(=O)NCCOC4OC(CO)C(O)C(O)C4O)nn3)c(c1)Cc1cc(C(C)(C)C)cc(c1OCc1cn(CC(=O)NCC(=O)NCCOC3OC(CO)C(O)C(O)C3O)nn1)Cc1cc(C(C)(C)C)cc(c1OCc1cn(CC(=O)NCC(=O)NCCOC3OC(CO)C(O)C(O)C3O)nn1)Cc1cc(C(C)(C)C)cc(c1OCc1cn(CC(=O)NCC(=O)NCCOC3OC(CO)C(O)C(O)C3O)nn1)C2` (stereo not shown) [Comp. 21], the “inhibiting concentrations” value against LecA [1] was 250 µM. Besides, on LecA [3] (setting [6]), the IC50 came out at 21 µM.

Regarding `CC(C)(C)c1cc2c(OCc3cn(CC(=O)NCC(=O)NCCOC4OC(CO)C(O)C(O)C4O)nn3)c(c1)Cc1cc(C(C)(C)C)cc(c1OCc1cn(CC(=O)NCC(=O)NCCOC3OC(CO)C(O)C(O)C3O)nn1)Cc1cc(C(C)(C)C)cc(c1OCc1cn(CC(=O)NCC(=O)NCCOC3OC(CO)C(O)C(O)C3O)nn1)Cc1cc(C(C)(C)C)cc(c1OCc1cn(CC(=O)NCC(=O)NCCOC3OC(CO)C(O)C(O)C3O)nn1)C2` (stereo not shown) [Comp. 23], the “inhibiting concentrations” value on LecA [1] was 250 µM. Also, the Kd at LecA [2] (setting [5]) is 239 µM. In addition, the IC50 at LecA [3] (setting [6]) was 7 µM; at LecA [4] (setting [7]), 1.1 µM. In addition, the “IC50 (SPR), in words” value at LecA [4] is reported as “micromolar range”.

Consider `CC(C)(C)c1cc2c(OCc3cn(CC(=O)NCC(=O)NCCOC4OC(CO)C(O)C(O)C4O)nn3)c(c1)Cc1cc(C(C)(C)C)cc(c1OCc1cn(CC(=O)NCC(=O)NCCOC3OC(CO)C(O)C(O)C3O)nn1)Cc1cc(C(C)(C)C)cc(c1OCc1cn(CC(=O)NCC(=O)NCCOC3OC(CO)C(O)C(O)C3O)nn1)Cc1cc(C(C)(C)C)cc(c1OCc1cn(CC(=O)NCC(=O)NCCOC3OC(CO)C(O)C(O)C3O)nn1)C2` (stereo not shown) [Comp. 25], for which the “inhibiting concentrations” value on LecA [1] was determined as 625 µM. Further, the figures for the IC50 at LecA [3] (setting [6]) and on LecA [4] (setting [7]) were 14 µM and 1.2 µM, respectively. Moreover, the “IC50 (SPR), in words” value at LecA [4] is recorded as “micromolar range”.
